Holding throughout (format): in vivo
The subject of test [1] is cow in dry period with moderate mastitis. Put plainly: Treatment of mastitis in a dry-period cow by intramammary infusion. To be noted: 3-lactation cow in dry period, 300 mg once per day for 5 days, solution. The procedure: A 3-lactation cow in dry period with moderate mastitis is administered 300 mg of the oxazolidinone in EXAMPLE 1, once per day for 5 days. The oxazolidinone is formulated as a solution and administered by intramammary infusion.

The next test relates to cow without mastitis. The test can be described thus: Prevention of mastitis in a cow at the start of dry off period by intramammary infusion. To be noted: 2-lactation cow without mastitis, single dose of 250 mg at start of dry off period, solution, mastitis occurs in untreated dry cows of same herd. The procedure: A 2-lactation cow without mastitis is administered a single dose of 250 mg of the oxazolidinone in EXAMPLE 2 at the start of dry off period. The oxazolidinone is formulated as a solution and administered by intramammary infusion. Although mastitis occurs in other dry cows that are in the same herd but are not treated with the oxazolidinones, the cow treated is not infected.

Test [2] relates to cow in lactation with moderate mastitis. The test can be described thus: Treatment of mastitis in a lactating cow with oxazolidinone plus bovine lactoferrin by intramammary infusion. To be noted: 3-lactation cow in lactation, 300 mg in combination with 3 g bovine lactoferrin once per day for 5 consecutive days, composite suspension. The procedure: A 3-lactation cow in lactation with moderate mastitis is administered 300 mg of the oxazolidinone in EXAMPLE 2 in combination with administration of 3 g of bovine lactoferrin, once per day for 5 consecutive days. The oxazolidinone and the lactoferrin are prepared in a composite suspension formulation and administered by intramammary infusion.

For `CC(=O)NC[C@H]1CN(c2ccc(N3CCOCC3)c(F)c2)C(=O)O1` [EXAMPLE 1, (S)-N-[[3-[3-fluoro-4-(4-morpholinyl)phenyl]-2-oxo-5-oxazolidinyl]methyl]acetamide], the “mastitis status at the end of the treatment” value in test [1] is given as “the mastitis is gone”.
Regarding `CC(=O)NC[C@H]1CN(c2ccc(N3CCSCC3)c(F)c2)C(=O)O1` [EXAMPLE 2, N-[[(5S)-3-[3-fluoro-4-(4-thiomorpholinyl)phenyl]-2-oxo-1,3-oxazolidin-5-yl]methyl]acetamide], the “occurrence of mastitis infection in treated cow” value with cow without mastitis is “not infected”. Besides, in test [2], the “mastitis status at the end of the treatment” value is on record as “the mastitis is gone”.

For the origin of these results see patent US6562820B2, “Method for treatment and prevention of mastitis” (Pharmacia & Upjohn Company, priority 2000, dated 2003).
